According to publication PMC3928794 (Chemistry & biodiversity, 2013):
Where two headings read alike, the source gives them in different places.

Assays:
Assay type in all cases: cell-based
[1] = test system: H522 lung cancer cell line; assay: Antiproliferative bioassay, H522 lung cancer cell line
[2] = test system: A2058 melanoma cell line; assay: Antiproliferative bioassay, A2058 melanoma cell line
[3] = test system: A2780 human ovarian cancer cell line; assay: Antiproliferative bioassay, A2780 ovarian cancer cell line; settings: for IC50: read-out: IC50 (μM) A2780, A2780 ovarian cancer cells, mean of three replicates
[4] = read-out: IC50 (μM) H522, H522 lung cancer cells

Compound | IC50 ([1]; Homo sapiens, NCI-H522, read-out: IC50 (μM) H522) | IC50 ([2]; Homo sapiens, A2058, read-out: IC50 (μM) A2058) | IC50 [1, 4] | inhibition of the proliferation of A2780 cells (in words) [3] | IC50 [3] | IC50 ([2]; read-out: IC50 (μM) A2058, A2058 melanoma cells)
CC[C@]1(O)C[C@@H]2CN(CCc3c([nH]c4ccccc34)[C@@](C(=O)OC)(c3cc4c(cc3OC)N(C)[C@H]3[C@@](O)(C(=O)OC)[C@H](OC(C)=O)[C@]5(CC)C=CCN6CC[C@]43[C@@H]65)C2)C1 [Vinblastine, reference compound] | 0.009 µM | 0.004 µM | – | – | – | –
CC(=O)OC[C@H]1O[C@@H](O[C@H]2CC[C@]3(C)[C@H]4CC=C5[C@@H]6CC(C)(C)CC[C@]6(C(=O)O)CC[C@@]5(C)[C@]4(C)CC[C@H]3C2(C)C)[C@H](O)[C@@H](O[C@@H]2O[C@H](CO)[C@@H](O)[C@H](O)[C@H]2O)[C@@H]1O [Compound 3, oleanolic acid-3-O-β-D-glucopyranosyl-(1→3)-(6″-O-acetyl)-β-D-glucopyranoside] | – | – | > 10 µM | selectively inhibit the proliferation of A2780 ovarian cancer cells | 1.2 ± 0.3 µM | –
oleanolic acid-3-O-β-D-glucopyranosyl-(1→3)-(2″-O-acetyl)-β-D-glucopyranoside [Compound 2] | – | – | > 10 µM | selectively inhibit the proliferation of A2780 ovarian cancer cells | 1.7 ± 0.1 µM | –
oleanolic acid-3-O-β-D-glucopyranosyl- (1→3)-β-D-glucopyranoside [Compound 1] | – | – | 7.32 µM | – | 2.2 ± 0.2 µM | 7.63 µM
